Measurements: PMC4028696, “Development of a screen to identify selective small molecules active against patient-derived metastatic and chemoresistant breast cancer cells” (Breast Cancer Research : BCR, 2013)
pEC50: −log10 of the molar value. Where a name gives a salt, the structure may show the parent alone. Peptide text beside a SMILES is read from it. * marks the point of attachment. Cbz = O=C(OCc1ccccc1)*; CH2F = FC*

Legend:
Type in all cases: cell-based, human
[1] = system: MDA-MB-231 cells; assay: Dose response assay, ATPlite viability, four days; conditions: MDA-MB-231, four days of treatment, ATP viability
Experimental: (§1) Cells were seeded in white 96-well plates (Costar, Tewksbury, MA, USA) in 100 μL of their respective media at varying densities to achieve 80% to 90% confluency after five days in culture. The compounds dissolved in DMSO were diluted in their corresponding media containing 2% FBS and an EP Motion 5075 (Eppendorf North America, Hauppauge, NY, USA) liquid handler was utilized to perform a serial dilution. […] After the cells were cultured for 24 hours, the media were aspirated and the cells were treated with the compounds and vehicle controls in triplicate. After four days of treatment, viability was determined utilizing the ATPlite 1step assay system (Perkin Elmer, Waltham, MA, USA) according to the manufacturer's instructions. Luminescence measurements were acquired utilizing a Perkin Elmer 2104 EnVision plate reader. Raw luminescence values were normalized to the DMSO vehicle control wells.

[2] = system: MCF-7 cells; assay: Dose response assay, ATPlite viability, four days; conditions: MCF-7, four days of treatment, ATP viability
Experimental: as §1

[3] = system: T47D cells; assay: Dose response assay, ATPlite viability, four days; conditions: four days of treatment, ATP viability
Experimental: as §1

[4] = system: PE1007070 cells; assay: Dose response assay, ATPlite viability, four days; conditions: PE1007070, four days of treatment, ATP viability
Experimental: as §1

[5] = system: PE1008032 cells; assay: Dose response assay, ATPlite viability, four days; conditions: PE1008032, four days of treatment, ATP viability
Experimental: as §1

[6] = system: PE904557a cells; assay: Dose response assay, ATPlite viability, four days; conditions: four days of treatment, ATP viability, N/A = data could not be fitted
Experimental: as §1

[7] = system: LC3A/B-II; assay: Western blot for LC3A/B-II (autophagy); conditions: most cells, 50 μM, 24 hours
Experimental: Cells were lysed in cold radioimmunoprecipitation assay buffer (50 mM Tris HCl, 150 mM NaCl, 0.1% sodium dodecyl sulfate (SDS), 0.5% sodium deoxycholate, 1% Triton X-100, pH = 8.0) supplemented with protease inhibitor cocktail (Sigma), phosphatase inhibitor cocktail 2 (Sigma) and 1 mM dithiothreitol (DTT) (Sigma). The lysate was sonicated for 30 seconds using a 450 Sonifier (Branson Ultrasonics, Danbury, CT, USA) and was centrifuged at 14,000 RPM for five minutes at 4°C. The protein concentration was determined using the BCA protein assay kit (Peirce, Rockford, IL, USA) and the samples were boiled for five minutes with 4× SDS Laemmli buffer. Equal amounts of protein were resolved on SDS polyacrylamide gels and transferred to an Immobilon-FL PVDF membrane (EMD Millipore). Blots were blocked in Odyssey Blocking Buffer (LI-COR, Lincoln, NE, USA) for one hour at room temperature, stained with primary antibodies overnight at 4°C, washed, and stained with IR800CW or IR680 anti-mouse or rabbit secondary antibodies (LI-COR) for one hour at room temperature. Blots were imaged with the Odyssey Infrared Imaging System (LI-COR).

[8] = system: MCF-7 cells; assay: Pan-caspase inhibitor effect on C-6 induced cell death; conditions: data not shown
[9] = Homo sapiens, 96 h, N/A = data could not be fitted

Row | SMILES | pEC50 ([1]; Homo sapiens, 96 h) | pEC50 ([2]; Homo sapiens, MCF7, 96 h) | pEC50 ([3]; Homo sapiens, 96 h) | pEC50 [4, 9] | pEC50 [5, 9] | pEC50 ([6]; Homo sapiens, 96 h) | other results
1 | CC(=O)O[C@H]1C(=O)[C@@]2(C)[C@H]([C@H](OC(=O)c3ccccc3)[C@]3(O)C[C@H](OC(=O)[C@H](O)[C@@H](NC(=O)c4ccccc4)c4ccccc4)C(C)=C1C3(C)C)[C@]1(OC(C)=O)CO[C@@H]1C[C@@H]2O [Taxol, paclitaxel] | 8.60 | 9.52 | 7.86 | – | – | – | –
2 | CC(C)C[C@H](NC(=O)[C@H](Cc1ccccc1)NC(=O)c1cnccn1)B(O)O [Bortezomib, bortezomib] | 7.46 | 8.24 | 7.48 | 7.84 | 8.48 | 7.49 | –
3 | Nc1ccn([C@@H]2O[C@H](CO)[C@@H](O)C2(F)F)c(=O)n1 [Gemcitabine, gemcitabine hydrochloride] | 8.02 | 8.56 | 8.20 | – | – | – | –
4 | C=CCNC1=C2C[C@@H](C)C[C@H](OC)[C@H](O)[C@@H](C)/C=C(\C)[C@H](OC(N)=O)[C@@H](OC)/C=C\C=C(/C)C(=O)NC(=CC1=O)C2=O [17-AAG, 17-(allylamino)-17-demethoxygeldanamycin] | – | – | – | – | – | – | pEC50 [1]: 5.82; pEC50 [4]: 5.94; pEC50 [5]: 5.78; pEC50 [2]: 6.06; pEC50 [3]: 5.85; pEC50 [6]: 7.43
5 | Cc1[nH]c2ccccc2c1CCNCc1ccc(/C=C/C(=O)NO)cc1 [LBH589, panobinostat] | 7.64 | 7.67 | 7.51 | 6.73 | 7.86 | 7.04 | –
6 | N.N.[Cl][Pt][Cl] [Cisplatin, cis-diammineplatinum (II) dichloride] | – | – | – | – | – | – | pEC50 [1]: 5.16; pEC50 [4]: 5.00; pEC50 [5]: 4.71; pEC50 [2]: 5.06; pEC50 [3]: 4.30
7 | CCN(CC)CCCC(C)Nc1ccnc2cc(Cl)ccc12 (stereo not shown) [chloroquine, Chloroquine] | – | – | – | – | – | – | LC3A/B-II levels [7]: significant increase
8 | COc1cccc2c1C(=O)c1c(O)c3c(c(O)c1C2=O)C[C@@](O)(C(=O)CO)C[C@@H]3O[C@H]1C[C@H](N)[C@H](O)[C@H](C)O1 [Doxorubicin, doxorubicin hydrochloride] | 6.96 | 6.58 | 6.72 | 6.17 | 6.46 | 6.13 | –
9 | COC(=O)C[C@H](NC(=O)[C@H](C)NC(=O)[C@@H](NC(=O)OCc1ccccc1)C(C)C)C(=O)CF [Z-VAD-FMK] (Cbz-Val-Ala-Asp(OMe)-CH2F) | – | – | – | – | – | – | effect on C-6 induced cell death [8]: did not affect
